Results published in PubChem BioAssay (NCI).
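Abbreviation: GI50, concentration required for 50% inhibition of growth. At the TGI there is no net growth.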

Key:
Assay in all cases: NCI tumour cell line growth inhibition, 384-well format
[1] = test system: LOX IMVI melanoma
[2] = test system: NCI-H460 NSCLC
[3] = test system: SK-MEL-5 melanoma
[4] = test system: HCC-2998 colon
[5] = test system: PC-3 prostate
[6] = test system: NCI-H23 lung
[7] = test system: HCT-15 colon
[8] = test system: HT29 colon
[9] = test system: NCI-H522 lung
[10] = test system: SNB-19 CNS
[11] = test system: NCI-H226 lung
[12] = test system: SW-620 colon
[13] = test system: MDA-MB-468 breast
[14] = test system: TK-10 renal
[15] = test system: MALME-3M melanoma
[16] = test system: SK-MEL-28 melanoma
[17] = test system: ACHN renal
[18] = test system: KM12 colon
[19] = test system: MDA-MB-435 melanoma
[20] = test system: OVCAR-3 ovarian
[21] = test system: IGROV1 ovarian
[22] = test system: OVCAR-4 ovarian
[23] = test system: SK-OV-3 ovarian
[24] = test system: A549 NSCLC
[25] = test system: SF-539 CNS
[26] = test system: U251 glioblastoma
[27] = test system: MCF7 breast
[28] = test system: UACC-62 melanoma

Nc1cc2c(cc1Cl)C(=O)c1ccccc1C2=O
TGI [1]: 16.4 µM
GI50 [2]: 3.76 µM
TGI [2]: 13.9 µM
GI50 [3]: 3.59 µM
TGI [3]: 50.6 µM
GI50 [4]: 11 µM
TGI [4]: > 100 µM
GI50 [5]: 10.1 µM
TGI [5]: 22 µM
GI50 [6]: 2.65 µM
TGI [6]: 11.3 µM
GI50 [7]: 15 µM
TGI [7]: 32.3 µM
GI50 [8]: 26 µM
TGI [8]: > 100 µM
GI50 [9]: 10.2 µM
TGI [9]: 21.9 µM
GI50 [10]: 3.59 µM
TGI [10]: 12.8 µM
GI50 [11]: 1.86 µM
TGI [11]: 17 µM
GI50 [12]: 11.8 µM
TGI [12]: 25.1 µM
GI50 [13]: 0.228 µM
TGI [13]: 9.07 µM
GI50 [14]: 2.63 µM
TGI [14]: 12.9 µM
GI50 [15]: 17.2 µM
TGI [15]: 47.8 µM
GI50 [16]: 17.8 µM
TGI [16]: 42.2 µM
GI50 [17]: 2.47 µM
TGI [17]: 12.7 µM
GI50 [18]: 11.1 µM
TGI [18]: 24 µM
GI50 [19]: 19.9 µM
TGI [19]: 44.3 µM
GI50 [20]: 6.94 µM
TGI [20]: 20.4 µM
GI50 [21]: 1.33 µM
TGI [21]: 17.9 µM
GI50 [22]: 1.1 µM
TGI [22]: 9.47 µM
GI50 [23]: 4.81 µM
TGI [23]: 18.4 µM
GI50 [24]: 6.15 µM
TGI [24]: 19.9 µM
GI50 [25]: 1.66 µM
TGI [25]: 3.06 µM
GI50 [26]: 3.21 µM
TGI [26]: 11 µM
GI50 [27]: 11.1 µM
TGI [27]: 23.3 µM
GI50 [28]: 7.21 µM
TGI [28]: 20.9 µM
